Laboratory results from patent publication US9084815B2, “Method for treating damage induced by an anti-tumor agent, treating mucositis and treating tumor” (SUCAMPO AG, priority 2009, dated 2015).

Tests used:
[1] = test system: stomatitis aggravated by 5-FU (cheek pouch mucosa); assay: Effects of Compound A on stomatitis: 5-FU plus cheek pouch scratching, hamster; assay type: in vivo, Golden Syrian hamsters
Protocol: Male Golden Syrian hamsters (5 weeks old) were used. After 1 week acclimatization period, the hamsters were administered intraperitoneally with 60 mg/kg 5-fluorouracil (5-FU) (Day 1). 5-FU administration was repeated again on Day 2. On Day 4, the cheek pouch mucosa of the hamsters is mechanically irritated under anesthesia by superficial scratching with the tip of an 18-gauge needle to produce transient erythema. On Day 8 and 10, the same scratching procedure was conducted and 5-FU administration was done. The Compound A at the doses of 24 μg/site or vehicle was topically applied to the cheek pouches from Day 1 to Day 14. During the treatment, the cheek pouch mucosa was macroscopically observed and the buccal lesion was scored according to the following criteria (stomatitis score): • 0: Normal mucosa • 1: Erythema was observed • 2: Severe erythema was observed • 3: Severe erythema and formation of ulcers in one or more places were observed. Cumulative size of the ulcers involves ˜25% of the pouch mucosa. Pseudomembrane formation was evident. • 4: Severe erythema and formation of ulcers were observed. Cumulative size of the ulcers involved about half of the pouch mucosa. Loss of mucosal pliability. • 5: diffuse, extensive ulceration. Loss of mucosal pliability. […] Severity of stomatitis was evaluated using the mean of scores per treatment group.

[2] = test system: 5-FU induced toxicity (ileum tissue damage); assay: Effects of Compound A against 5-FU induced toxicity: histopathological tissue damage score of ileum; assay type: in vivo; conditions: for Total score (tissue damage): 5-FU 50 mg/kg i.p. Day 1 to 4, ileum H&E on Day 7
Protocol: After 1 week of acclimatization period, the experiment started (Day 0). Compound A ((−)-7-{(2R,4aR,5R,7aR)-2-[(3S)-1,1-difluoro-3-methylpentyl]-2-hydroxy-6-oxooctahydrocyclopenta[b]pyran-5-yl}heptanoic acid) (3, 10, 30 μg/kg) or vehicle was administered orally once daily for 5 days from Day 0 to 4 (Schedule 1). In other dosing schedule group, Compound A (30 μg/kg) was administered orally once daily from Day 4 to Day 6 (Schedule 2). 5-FU (50 mg/kg) was administered intraperitoneally once daily for 4 days from Day 1 to 4. On Day 1, 2, 3, and 4,5-FU was administered immediately after administration of Compound A or vehicle. During the experiment period (Day 0-7), animals were weighed every day. On Day 7, the animals were anesthetized by isofluran. Ileum was excised and fixed in 10% formalin. Paraffin-embedded sections were prepared and stained with H&E for histopathological evaluation of tissue damage. The tissue damage was graded according to the following criteria: • 0. No change, • 1: slight, • 2: mild, • 3: moderate, • 4: severe The effect of each compound was evaluated using total score of tissue damage.

CC[C@H](C)CC(F)(F)[C@@]1(O)CC[C@H]2[C@@H](CC(=O)[C@@H]2CCCCCCC(=O)O)O1 [Compound A, (−)-7-{(2R,4aR,5R,7aR)-2-[(3S)-1,1-difluoro-3-methylpentyl]-2-hydroxy-6-oxooctahydrocyclopenta[b]pyran-5-yl}heptanoic acid]
Effect on stomatitis compared to vehicle control group (in words) ([1]; 24 μg/site topical, stomatitis aggravated by 5-FU treatment): improved stomatitis
stomatitis score on Day 14 (Mean ± SE) ([1]; 24 μg/site topically to cheek pouches Day 1 to Day 14, 5-FU treatment yes, score 0-5, p < 0.05 vs. vehicle control): 0.25 ± 0.25
Total score (tissue damage) ([2]; Compound A 3 μg/kg orally once daily, Schedule 1 (Day 0 to 4)): 10.0
Total score (tissue damage) ([2]; Compound A 10 μg/kg orally once daily, Schedule 1 (Day 0 to 4)): 5.0
Total score (tissue damage) ([2]; Compound A 30 μg/kg orally once daily, Schedule 1 (Day 0 to 4)): 5.7
Total score (tissue damage) ([2]; Compound A 30 μg/kg orally once daily, Schedule 2 (Day 4 to Day 6)): 4.3
Effect on total score of tissue damage (in words) ([2]; at 10 or 30 μg/kg regardless of the dosing schedule): decreased total scores
